Where two headings read alike, the source gives them in different places.
Experiments:
[1] = Cytotoxicity assay (MTT) on MT-4 cells; format: cell-based, human; settings: human, five days, read-out: CC50, concentration that inhibits the proliferation of MT-4 cells by 50%
Experimental: (§1) The cytotoxicity of the title compounds was tested through MTT analysis on MT-4 cells. Cells were seeded in 96-well plates with a density of 50,000 cells/well and coincubated with serial diluted compounds (2.5, 5, 10, 20, 40, and 80 μM) at 37 °C for five days. MTT (Sigma) was then added to each well to a final concentration of 0.5 mg/mL and incubated for 2 h. Subsequently, the medium was decanted, and 150 μL of DMSO was added to each well. The absorbance was obtained using a microplate reader at 570 nm, and all measurements were conducted three times under the same condition. Finally, 50% cytotoxicity concentration (CC50) values were calculated by Graphpad Prism 8.

HIV-1 integrase = biological target: T1, HIV-1 integrase (Human immunodeficiency virus type 1 group M subtype B, UniProt P04585); experiment: Strand transfer inhibition assay (HIV-1 integrase assay kit); format: biochemical; settings: for IC50: average of three independent experiments; for Improvement of integrase inhibitory activity over the parent compound 3: ratio of IC50s versus compound 3
T1 construct: purchased Abnova
Experimental: The strand transfer assay was performed using an HIV-1 integrase assay kit (Abnova, Taipei, CN) according to the manufacturer’s instructions. Each sample was dissolved in DMSO and diluted to a final desired concentration (80, 40, 20, 10, 5 μM) with reaction buffer. Briefly, 100 μL of DS DNA solution was added to each well and incubated for 30 min at 37 °C, and the liquid was removed from the wells and washed 3 times with wash buffer. Then, 200 μL of blocking buffer was added to each well and incubated for 30 min in a 37 °C incubator. Followed by the aspiration of the liquid, each well was washed 3 times with reaction buffer, and 100 μL integrase enzyme solution was added to each well and incubated under similar conditions. Sequentially, 50 μL reaction buffer containing different concentrations of samples was added to each well and incubated for 5 min at room temperature. To each well was added 50 μL of TS DNA solution, and the reactions were mixed gently and incubated for 30 min at 37 °C. Then, each well was washed 3 times with wash solution, incubated with 100 μL HRP antibody and incubated for 30 min at 37 °C. After washing the plate under the same conditions, 100 μL TMB peroxidase substrate solution was added to each well and incubated at room temperature for 10 min. To terminate the reaction, 100 μL TMB stop solution was directly added to each well and the absorbance of the sample was determined using a plate reader (ELx800UV, Bio-Tek Instrument Inc., Winooski, VT, USA) at 450 nm.

MT-4 cells = experiment: Cytotoxicity assay (MTT) on MT-4 cells; format: cell-based, human; settings: five days, read-out: CC50, concentration that inhibits the proliferation of MT-4 cells by 50%
Experimental: as §1

[2] = read-out: IC50, concentration required to inhibit the in vitro strand-transfer step of integrase by 50%
[3] = IC50, concentration required to inhibit the in vitro strand-transfer step of integrase by 50%

Compound	CC50 at 5 days [1] [µM]	IC50 (HIV-1 integrase; [2]) [µM]	melting point [°C]	IC50 (HIV-1 integrase; [3]) [µM]	Improvement of integrase inhibitory activity over the parent compound 3 (HIV-1 integrase) [fold]	CC50 (MT-4 cells) [µM]
COc1ccc(Nc2ccc3c(COCc4ccc(C(F)(F)F)cc4)c(C(=O)OC(C)C)[nH]c3c2)cc1F [Compound 16a, Isopropyl 6-((3-fluoro-4-methoxyphenyl)amino)-3-(((4-(trifluoromethyl)benzyl)oxy)methyl)-1H-indole-2-carboxylate]	> 80	3.47 ± 0.82	142.3 to 145.6	–	–	–
CC(C)OC(=O)c1[nH]c2cc(Br)ccc2c1COCc1ccc(C(F)(F)F)cc1 [Compound 15, Isopropyl 6-bromo-3-(((4-(trifluoromethyl)benzyl)oxy)methyl)-1H-indole-2-carboxylate]	> 80	–	–	2.34 ± 0.31	5.3	–
O=c1c2cc(N3CCOCC3)ccc2nc(SCc2cc(=O)n3cc(Cl)ccc3n2)n1Cc1ccc2c(c1)OCO2 [Compound 9]	–	32.8 ± 0.83	239 to 240.1	–	–	–
O=C(O)c1[nH]c2cc(Br)ccc2c1COCc1ccccc1F [Compound 21, 6-bromo-3-(((2-fluorobenzyl)oxy)methyl)-1H-indole-2-carboxylic acid]	> 80	6.85 ± 0.66	174.3 to 178	–	–	–
Cc1c2c(=O)n(-c3nc4ccccc4s3)n(Cc3ccccc3)c2cc(=O)n1Cc1ccc2c(c1)OCO2 [Compound 10]	–	22.3 ± 0.43	139.9 to 143.6	–	–	–
COc1cc(OC)c([C@H]2c3c(oc4ccc(Cl)cc4c3=O)C(=O)N2c2cc(C)on2)cc1OC [Compound 4]	–	18.5 ± 1.06	271.4 to 279	–	–	–
CC(C)OC(=O)c1[nH]c2cc(Nc3ccc(F)cc3F)ccc2c1COCc1ccccc1F [Compound 19b, Isopropyl 6-((2,4-difluorophenyl)amino)-3-(((2-fluorobenzyl)oxy)methyl)-1H-indole-2-carboxylate]	> 29	1.7 ± 0.15	171.8 to 175.3	–	–	29.4 ± 1.76
CC(C)OC(=O)c1[nH]c2cc(Nc3ccc(F)cc3F)ccc2c1COCc1ccc(C(F)(F)F)cc1 [Compound 16b, Isopropyl 6-((2,4-difluorophenyl)amino)-3-(((4-(trifluoromethyl)benzyl)oxy)methyl)-1H-indole-2-carboxylate]	> 80	1.06 ± 0.25	149.7 to 152.5	–	–	–
O=C(/C=C/c1ccc2c(c1)OCO2)C[C@@]1(O)C(=O)N(Cc2ccc(Cl)cc2)c2ccccc21 [Compound 7]	–	21.4 ± 0.26	147 to 148.2	–	–	–
COc1ccc(Nc2ccc3c(COCc4ccc(C(F)(F)F)cc4)c(C(=O)O)[nH]c3c2)cc1F [Compound 17a, 6-((3-fluoro-4-methoxyphenyl)amino)-3-(((4-(trifluoromethyl)benzyl)oxy)methyl) -1H-indole-2-carboxylic acid]	> 80	0.93 ± 0.07	134.8 to 136.3	–	–	–
COc1ccc([C@H]2CC(=O)Nc3c(S(=O)(=O)c4ccccc4)csc32)cc1OC1CCCC1 [Compound 2]	–	33 ± 1.29	113 to 116.7	–	–	–
Cc1nnc(C(=O)NC(C)(C)c2nc(C(=O)NCc3ccc(F)cc3)c(O)c(=O)n2C)o1 [RAL, raltegravir, reference compound]	> 80	–	–	–	–	–
O=C(NCc1ccc(F)cc1)c1coc(CN(Cc2ccc3c(c2)OCO3)Cc2ccc3c(c2)OCO3)n1 [Compound 8]	–	28.2 ± 1.07	171.5 to 176.8	–	–	–
O=C(NC1CCCC1)c1ccc2c(=O)n(Cc3ccco3)c(=O)n(Cc3cccc([N+](=O)[O-])c3)c2c1 [Compound 6]	–	22.6 ± 0.58	235.3 to 241.2	–	–	–
Clc1ccc2c(c1)C(c1ccccc1Cl)=NCc1nnc(CSCc3ccccc3)n1-2 [Compound 5]	–	–	164.7 to 167.8	47.4 ± 1.45	–	–
CC(C)OC(=O)c1[nH]c2cc(Br)ccc2c1COCc1ccccc1F [Compound 18, Isopropyl 6-bromo-3-(((2-fluorobenzyl)oxy)methyl)-1H-indole-2-carboxylate]	> 29	–	154.6 to 158.9	1.92 ± 0.07	6.5	45.3 ± 2.73
O=C(O)c1[nH]c2cc(Nc3ccc(F)cc3F)ccc2c1COCc1ccc(C(F)(F)F)cc1 [Compound 17b, 6-((2,4-difluorophenyl)amino)-3-(((4-(trifluoromethyl)benzyl)oxy)methyl)-1H-indole-2-carboxylic acid]	> 80	0.39 ± 0.09	157.3 to 160.5	–	–	–
COc1ccc(Nc2ccc3c(COCc4ccccc4F)c(C(=O)O)[nH]c3c2)cc1F [Compound 20a, 6-((3-fluoro-4-methoxyphenyl)amino)-3-(((2-fluorobenzyl)oxy)methyl)-1H-indole-2-carboxylic acid]	> 80	0.13 ± 0.02	169.9 to 173.7	–	–	–
COc1ccc2[nH]c(C(=O)O)c(CC(=O)O)c2c1 [Compound 3]	–	12.41 ± 0.07	159.7 to 163.2	–	–	–
O=C(O)c1[nH]c2cc(Nc3ccc(F)cc3F)ccc2c1COCc1ccccc1F [Compound 20b, 6-((2,4-difluorophenyl)amino)-3-(((2-fluorobenzyl)oxy)methyl)-1H-indole-2-carboxylic acid]	> 80	0.64 ± 0.06	178.5 to 181.8	–	–	–
COc1ccc(Nc2ccc3c(COCc4ccccc4F)c(C(=O)OC(C)C)[nH]c3c2)cc1F [Compound 19a, Isopropyl 6-((3-fluoro-4-methoxyphenyl)amino)-3-(((2-fluorobenzyl)oxy)methyl)-1H-indole-2-carboxylate]	> 29	1.05 ± 0.32	141.2 to 144.5	–	–	37.6 ± 3.64
Cc1ccc(CNC(=O)CCS(=O)(=O)c2ccc3c(c2)CCN3C(=O)C2CC2)cc1 [Compound 1]	–	39.1 ± 1.21	173.4 to 175.3	–	–	–

From PMC10745497, “The Discovery of Indole-2-carboxylic Acid Derivatives as Novel HIV-1 Integrase Strand Transfer Inhibitors” (Molecules, 2023)
